Results taken from patent US20210038587A1, “METHODS AND COMPOSITIONS FOR TREATING NON-ERK MAPK PATHWAY INHIBITOR-RESISTANT CANCERS” (BIOMED VALLEY DISCOVERIES, INC., priority 2013, published 2021).

How the values were obtained:
[1] = tested on: A375, MIAPaCa-2, HCT116, Colo205, HT-29, and AN3Ca cells; assay: Reverse Phase Protein Analysis (RPPA), all six cell lines; format: cell-based; conditions: 10 μM, 6 hours
Protocol: Control wells were treated with DMSO at 0.1% (v/v) for 6 hours prior to cell lysate generation. Samples were then analyzed using reverse-phase protein microarray technology (Theranostics Health).
Cell lines with common alterations in BRAF and RAS were assayed: BRAF^V600E mutant lines A375, Colo205, and HT29; KRAS^G12C-mutant cell line MIAPACa-2; KRAS^G13D-mutant cell line HCT116; and AN3Ca with atypical HRAS^F82L mutation. Changes in protein levels are shown as a percentage change from dimethyl sulfoxide (DMSO)-treated parental control (FIG. 32A and Table 23).

MIAPaCa-2 = assay: Reverse Phase Protein Analysis (RPPA); format: cell-based; conditions: MIAPaca2; % change from DMSO (matched cell line)
A375 = assay: Reverse Phase Protein Analysis (RPPA); format: cell-based, human; conditions: % change from DMSO (matched cell line)
Method in brief: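 Cells were treated 6 h before lysis, with 0.1% (v/v) DMSO as control. Lysates were analysed by reverse-phase protein microarray. Protein changes are expressed as percentage change from DMSO-treated parental cells.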

## Cc1cnc(Nc2ccc(F)cc2Cl)nc1-c1c[nH]c(C(=O)N[C@H](CO)c2cccc(Cl)c2)c1 [Vx-11e]
[1]
  pERK1/2 (ERK1/2-T202, -Y204): markedly increased pERK1/2
MIAPaCa-2
  Avg (4ebp1 T70): −15.72%
  Avg (Akt S473): 0.48%
  Avg (Akt): −0.15%
  Avg (Bad S136): 0.36%
  Avg (Bad S155): 7.38%
  Avg (Bak): −1.93%
  Avg (Bax): 4.33%
  Avg (Bcl 2): −2.3%
  Avg (Bcl2 S70): −7.83%
  Avg (Bcl 2 T56): −9.86%
  Avg (Bim): 2.1%
  Avg (CREB S133): −13.28%
  Avg (Caspase 3 CL D175): 6.17%
  Avg (Caspase 7 Cl D198): −0.32%
  Avg (Chk1): −1.8%
  Avg (Chk1 S345): 2.09%
  Avg (Cyclin D1): −33.96%
  Avg (ERK 1 2): −14.85%
  Avg (ERK 1 2 T202 Y204): 729.27%
  Avg (MAK1 S360): −0.87%
  Avg (Mcl1): −6.58%
  Avg (Raptor S792): −3.74%
  Avg (Raptor): 5.4%
  Avg (Rictor): −13.24%
  Avg (Stat1): −1.64%
  Avg (Stat3): 0.61%
  Avg (bad S112): −20.85%
  Avg (c Fos): −4.43%
  Avg (c Myc): −5.94%
  Avg (mTOR S2448): −5.38%
  Avg (mTOR S2481): −3.12%
  Avg (mTOR): −1.58%
  Avg (p70 S6 Kinase): −9.27%
  Avg (p90 RSK S380): −39.91%
  Avg(S6 Ribo Prot S235 236): −63.36%
  Avg(S6 Ribo Prot S240 244): −74.82%
  Avg(Tuberin TSC2 Y1571): −0.01%
  Avg(p70 S6 Kinase S371 S394): −30.35%
  Avg(p70 S6 Kinase T389 T412): −30.66%
A375
  Avg (4ebp1 T70): 23.33%
  Avg (Akt S473): 93.85%
  Avg (Akt): −30.34%
  Avg (Bad S136): 5.06%
  Avg (Bad S155): −6.3%
  Avg (Bak): 0.65%
  Avg (Bax): −5.05%
  Avg (Bcl 2): −9.93%
  Avg (Bcl2 S70): −4.02%
  Avg (Bcl 2 T56): −7.53%
  Avg (Bim): 12.32%
  Avg (CREB S133): −15.8%
  Avg (Caspase 3 CL D175): −9.27%
  Avg (Caspase 7 Cl D198): −7.62%
  Avg (Chk1): −0.86%
  Avg (Chk1 S345): 0.56%
  Avg (Cyclin D1): −85.46%
  Avg (ERK 1 2): −5.39%
  Avg (ERK 1 2 T202 Y204): 128.93%
  Avg (MAK1 S360): −7.63%
  Avg (Mcl1): 1.6%
  Avg (Raptor S792): −0.86%
  Avg (Raptor): −12.7%
  Avg (Rictor): −8.16%
  Avg (Stat1): 0.23%
  Avg (Stat3): 1.71%
  Avg (bad S112): −69.29%
  Avg (c Fos): −13.65%
  Avg (c Myc): −0.97%
  Avg (mTOR S2448): −21.66%
  Avg (mTOR S2481): −2.9%
  Avg (mTOR): −3.31%
  Avg (p70 S6 Kinase): −6.42%
  Avg (p90 RSK S380): −65.25%
  Avg(Tuberin TSC2 Y1571): −3.55%
  Avg(p70 S6 Kinase S371 S394): −17.32%
  Avg(p70 S6 Kinase T389 T412): −25.54%

## Cn1nccc1Nc1nccc(-c2ccn([C@H](CO)c3ccc(Cl)c(F)c3)c(=O)c2)n1 [GDC-0994]
[1]
  pERK1/2 (ERK1/2-T202, -Y204): markedly increased pERK1/2
  survival marker pBAD: only modest inhibition of pBAD
MIAPaCa-2
  Avg (4ebp1 T70): −34.01%
  Avg (Akt S473): 2.24%
  Avg (Akt): 4.33%
  Avg (Bad S136): 2.25%
  Avg (Bad S155): 8.18%
  Avg (Bak): −8.11%
  Avg (Bax): 3.48%
  Avg (Bcl 2): −7.8%
  Avg (Bcl2 S70): −6.78%
  Avg (Bcl 2 T56): −2.12%
  Avg (Bim): 5.07%
  Avg (CREB S133): −21.37%
  Avg (Caspase 3 CL D175): 10.47%
  Avg (Caspase 7 Cl D198): −4.92%
  Avg (Chk1): 6.56%
  Avg (Chk1 S345): 32.96%
  Avg (Cyclin D1): −31.92%
  Avg (ERK 1 2): −6.88%
  Avg (ERK 1 2 T202 Y204): 199.59%
  Avg (MAK1 S360): −5.25%
  Avg (Mcl1): −1.79%
  Avg (Raptor S792): 2.18%
  Avg (Raptor): 22.43%
  Avg (Rictor): −11.25%
  Avg (Stat1): 7.4%
  Avg (Stat3): −9.44%
  Avg (bad S112): −10.08%
  Avg (c Fos): −16.12%
  Avg (c Myc): −7.84%
  Avg (mTOR S2448): 11.84%
  Avg (mTOR S2481): 3.65%
  Avg (mTOR): −9.8%
  Avg (p70 S6 Kinase): −3.25%
  Avg (p90 RSK S380): −39.09%
  Avg(S6 Ribo Prot S235 236): −67.9%
  Avg(S6 Ribo Prot S240 244): −75.59%
  Avg(Tuberin TSC2 Y1571): 5.71%
  Avg(p70 S6 Kinase S371 S394): −14.4%
  Avg(p70 S6 Kinase T389 T412): −40.99%
A375
  Avg (4ebp1 T70): −29.47%
  Avg (Akt S473): 53.66%
  Avg (Akt): −20.7%
  Avg (Bad S136): −6.21%
  Avg (Bad S155): −13.31%
  Avg (Bak): 2.76%
  Avg (Bax): 3.97%
  Avg (Bcl 2): −3.13%
  Avg (Bcl2 S70): 6.3%
  Avg (Bcl 2 T56): −4.1%
  Avg (Bim): 9.8%
  Avg (CREB S133): −1.18%
  Avg (Caspase 3 CL D175): −16.74%
  Avg (Caspase 7 Cl D198): −5.53%
  Avg (Chk1): −7.72%
  Avg (Chk1 S345): −18.35%
  Avg (Cyclin D1): −81.65%
  Avg (ERK 1 2): 31.55%
  Avg (ERK 1 2 T202 Y204): 142.37%
  Avg (MAK1 S360): −5.21%
  Avg (Mcl1): −9.09%
  Avg (Raptor S792): −15.93%
  Avg (Raptor): −14.32%
  Avg (Rictor): −23.29%
  Avg (Stat1): −5.67%
  Avg (Stat3): 14.24%
  Avg (bad S112): −55.32%
  Avg (c Fos): −12.46%
  Avg (c Myc): −9.11%
  Avg (mTOR S2448): −23.61%
  Avg (mTOR S2481): −19.37%
  Avg (mTOR): −6.2%
  Avg (p70 S6 Kinase): −18.11%
  Avg (p90 RSK S380): −60.74%
  Avg(S6 Ribo Prot S235 236): −87.61%
  Avg(S6 Ribo Prot S240 244): −80.3%
  Avg(Tuberin TSC2 Y1571): −16.74%
  Avg(p70 S6 Kinase S371 S394): −17.34%
  Avg(p70 S6 Kinase T389 T412): −31.9%
